Assays:
Format in all cases: in vivo
cereals = test: Container trials with cereals in the greenhouse, use of safeners (Mefenpyr 1 day prior to herbicide application)
Procedure: Seeds of monocotylidonous and dicotylidonous weed and crop plants are placed in sandy loam in wood fibre pots, covered with soil and cultivated in a greenhouse under good growth conditions. Two to three weeks after sowing, the test plants are treated at the one-leaf stage. The test compounds, formulated as wettable powders (WP), are then with a water application rate of 600 l/ha (converted), with 0.2% of wetting agent added, sprayed onto the green parts of the plants in different amounts. After the test plants have been kept in the greenhouse under optimum growth conditions for about three weeks, the effect of the preparations is assessed visually in comparison to untreated controls (herbicidal effect in percent: 100% effect=the plants have died, 0% effect=like control plants).
If it is to be additionally tested as to whether safeners can improve the plant compatibility of test substances in the case of crop plants, the following options are used for applying the safeners: • Seeds of the crop plants are, before sowing, dressed with safener substance (the amount of safener stated in percent, based on the weight of the seed) • Before the application of the test substances, the crop plants are sprayed with the safener at a certain application rate per hectare (usually one day before the application of the test substances) • The safener is applied together with the test substance as a tank mix (the amount of safener stated in g/ha or as a ratio, based on the herbicide).
Container Trials with Cereals in the Greenhouse

[1] = system: monocotylidonous and dicotylidonous weed and crop plants; test: Herbicidal post-emergence action (other test plants); conditions: post-emergence method, 80 g/ha
In short: (§1)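 Visual % herbicidal effect vs untreated controls (100% = plants dead, 0% = as control), ~3 wk after spraying. Plants sown in sandy loam, greenhouse-grown, treated at one-leaf stage (2–3 wk post-sowing). WP formulations, 600 l/ha water + 0.2% wetting agent, various doses.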

Echinocloa crus-galli [2] = test: Herbicidal pre-emergence action; conditions: pre-emergence method, 80 g/ha, greenhouse, visual assessment vs untreated controls
In short: (§2)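 Seeds sown in sandy loam and covered; WP-formulated compounds applied to the soil surface as aqueous suspension at 600 l/ha with 0.2% wetting agent, at varying rates. Greenhouse-grown; emergence damage scored visually after three weeks versus untreated controls (100% = plants dead, 0% = like control).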

Alopecurus myosuroides [3] = test: Herbicidal pre-emergence action; conditions: pre-emergence method, 80 g/ha, greenhouse, visual assessment vs untreated controls
In short: as §2

Lolium multiflorum [4] = test: Herbicidal pre-emergence action; conditions: pre-emergence method, 80 g/ha, greenhouse, visual assessment vs untreated controls
In short: as §2

Setaria viridis [5] = test: Herbicidal pre-emergence action; conditions: pre-emergence method, 80 g/ha, greenhouse, visual assessment vs untreated controls
In short: as §2

Echinocloa crus-galli [6] = test: Herbicidal post-emergence action; conditions: post-emergence method, 80 g/ha
In short: as §1

Alopecurus myosuroides [7] = test: Herbicidal post-emergence action; conditions: post-emergence method, 80 g/ha
In short: as §1

Lolium multiflorum [8] = test: Herbicidal post-emergence action; conditions: post-emergence method, 80 g/ha
In short: as §1

Setaria viridis [9] = test: Herbicidal post-emergence action; conditions: post-emergence method, 80 g/ha
In short: as §1

[10] = system: monocotylidonous and dicotylidonous weed and crop plants; test: Herbicidal pre-emergence action (other test plants); conditions: pre-emergence method, 80 g/ha, greenhouse, visual assessment vs untreated controls
In short: as §2

[11] = 28 days after application, 25 g of a.i./ha
[12] = 28 days after application, 50 g of a.i./ha
[13] = 28 days after application, 100 g of a.i./ha
[14] = 28 days after application, 12.5 g of a.i./ha

SMILES | Summer barley observed (%) (cereals; [11]) | Summer barley observed (%) (cereals; [12]) | Summer barley observed (%) (cereals; [13]) | Summer wheat observed (%) (cereals; [14]) | Summer wheat observed (%) (cereals; [11]) | Summer wheat observed (%) (cereals; [12]) | Summer wheat observed (%) (cereals; [13]) | herbicidal effect against AVEFA (Avena fatua) [1] | herbicidal effect ECHCG (Echinocloa crus-galli [2]) | herbicidal effect ALOMY (Alopecurus myosuroides [3]) | herbicidal effect LOLMU (Lolium multiflorum [4]) | herbicidal effect SETVI (Setaria viridis [5]) | herbicidal effect against ECHCG (Echinochloa crus-galli) (Echinocloa crus-galli [6]) | herbicidal effect against ALOMY (Alopecurus myosuroides) (Alopecurus myosuroides [7]) | herbicidal effect against LOLMU (Lolium multiflorum) (Lolium multiflorum [8]) | herbicidal effect against SETVI (Setaria viridis) (Setaria viridis [9]) | herbicidal effect AVEFA [10] | Summer wheat observed (%) (cereals; 10 days after application, 12.5 g of a.i./ha) | Summer wheat observed (%) (cereals; 10 days after application, 25 g of a.i./ha) | Summer wheat observed (%) (cereals; 10 days after application, 50 g of a.i./ha)
CCc1cc(C)cc(CC)c1C1=C(OC(=O)OC(C)C)[C@H]2C[C@]3(COC(C)(C)O3)C[C@H]2C1=O (relative stereo) [I-c-3] | 15% | 30% | 95% | 10% | 20% | 60% | 99% | 80% | 40% | 100% | 100% | 70% | 90% | 90% | 100% | 80% | 80% |  |  | 
CCc1cc(C)cc(CC)c1C1=C(O)[C@H]2CC3(C[C@H]2C1=O)OCCCO3 (relative stereo) [I-a-11] |  | 8% | 10% | 10% | 50% | 60% | 70% | 90% | 100% | 90% | 100% | 70% | 100% | 90% | 100% | 100% | 50% | 30% | 50% | 70%
CCOC(=O)OC1=C(c2c(CC)cc(C)cc2CC)C(=O)[C@@H]2CC3(C[C@H]12)OCCCO3 (relative stereo) [I-c-14] |  | 10% | 20% | 40% | 50% | 60% | 70% | 70% | 90% | 90% | 100% | 70% | 100% | 90% | 100% | 100% | 70% |  |  | 
CCc1cc(C)cc(C)c1C1=C(O)C2CC3(CC2C1=O)OCCCO3 (centres unmarked) [I-a-58] | 5% | 10% | 15% | 10% | 15% | 20% | 60% |  | 100% | 70% | 100% | 100% | 100% | 100% | 100% | 100% | 70% |  |  | 
CCc1cc(C)cc(C)c1C1=C(OC(=O)C(C)(C)C)C2CC3(CC2C1=O)OCC=CCO3 (centres unmarked) [I-b-75] |  |  |  |  |  |  |  | 90% | 100% | 60% | 100% | 70% | 100% | 100% | 100% | 100% | 60% |  |  | 
C=C1CC2C(=O)C(c3c(CC)cc(C)cc3CC)=C([O-])C2C1.[Na+] (centres unmarked) [I-f-21] |  |  |  |  |  |  |  | 80% | 100% | 90% | 100% | 90% | 100% | 80% | 100% | 100% | 70% |  |  | 
CCC(=O)OC1=C(c2c(CC)cc(C)cc2CC)C(=O)C2CC3(COC(C)(C)O3)CC12 (centres unmarked) [I-b-6] |  |  |  |  |  |  |  | 100% | 30% | 100% | 100% | 60% | 100% | 90% | 100% | 90% | 80% |  |  | 
CCc1cc(C)cc(CC)c1C1=C([O-])C2CC3(CC2C1=O)OCCCCO3.[Na+] (centres unmarked) [I-f-17] |  |  |  |  |  |  |  | 100% | 90% | 80% | 100% | 90% | 100% | 100% | 100% | 100% | 60% |  |  | 
CCOC1COC2(CC3C(=O)C(c4c(CC)cc(C)cc4CC)=C([O-])C3C2)OC1.[Na+] (centres unmarked) [I-f-14] |  |  |  |  |  |  |  | 100% | 100% | 100% | 100% | 100% | 100% | 100% | 100% | 100% | 70% |  |  | 
C=C1CC2C(=O)C(c3c(C)cc(C)cc3C)=C(OC(=O)OCC)C2C1 (racemic) [I-c-45] |  |  |  |  |  |  |  | 0% | 80% | 60% | 80% | 80% | 90% | 40% | 100% | 90% | 80% |  |  | 
CCOC(=O)OC1=C(c2c(CC)cc(C)cc2CC)C(=O)C2CC3(CC12)OC(C)CC(C)O3 (mixture of isomers) [I-c-10] |  | 50% | 95% | 15% | 50% | 95% |  | 100% | 100% | 100% | 100% | 90% |  | 90% | 100% | 90% | 80% |  |  | 
CCc1cc(C)cc(CC)c1C1=C(O)[C@H]2CC(=NOCC3CC3)C[C@H]2C1=O (relative stereo) [I-a-31] |  |  |  |  |  |  |  | 80% | 100% | 80% | 100% | 90% | 100% | 100% | 100% | 100% | 40% |  |  | 

— patent publication US8367873B2, “Phenyl-substituted bicyclooctane-1,3-dione derivatives” (Bayer Cropscience AG, priority 2008, dated 2013)
